From PMC8509428, “The Phenoxyalkyltriazine Antagonists for 5-HT6 Receptor with Promising Procognitive and Pharmacokinetic Properties In Vivo in Search for a Novel Therapeutic Approach to Dementia Diseases” (International Journal of Molecular Sciences, 2021)
Several values for one entry are separate records, joined by “and”; a condition that tells them apart may be missing. Identical values can stand only once. Like-named read-outs stand apart in the source and are kept apart here.

Experiments:
[1] = test system: neuroblastoma SH-SY5Y cells; test: Neurotoxicity in SH-SY5Y (MTS and LDH assays); type: cell-based, human; conditions: 100 μM, 48 h, vs control cells
Procedure: Human neuroblastoma cell line SH-SY5Y (ATCC® no. CRL-2266™) was used for neurotoxicity evaluation. […] To perform dose–response analysis, 2-fold serial dilutions (12 points) were prepared. Treatment with compounds was performed for 48 h. After the incubation time, 100μL of culture medium was transferred to black well plates to examined membrane integrity using the CytoTox-ONE™ Homogeneous Membrane Integrity Assay (Promega, Madison, WI, USA) following the manufacturer’s protocol. Briefly, a volume of 100 µL CytoTox-ONE™ reagent was added to each well and carefully mixed under gentle shaking. […] The plate was incubated at room temperature for 15 min and the fluorescence was then recorded at an excitation wavelength of 560 nm and an emission wavelength of 590 nm using the microplate reader EnSpire (PerkinElmer, Waltham, MA, USA). […] Cytotoxicity is expressed as a percentage relative to the positive control, which is assumed to be responsible for 100% LDH release.
The cell viability was examined using an MTS-based [3-(4,5-dimethylthiazol-2-yl)-5-(3-carboxymethoxyphenyl)-2-(4-sulfophenyl)-2 H tetrazolium] […] After incubation time, formazan product turnover absorbance was measured at 490 nm using the microplate reader EnSpire (PerkinElmer, Waltham, MA, USA). […]

5-HT2A receptor = target: T1, 5-HT2A receptor (Homo sapiens, UniProt P28223); test: Functional assay for 5-HT2A receptor (aequorin, CHO-K1 cells); type: cell-based
T1 construct: expressed in transfected cells; host or cells: CHO-K1
T1 sequence (P28223 whole entry): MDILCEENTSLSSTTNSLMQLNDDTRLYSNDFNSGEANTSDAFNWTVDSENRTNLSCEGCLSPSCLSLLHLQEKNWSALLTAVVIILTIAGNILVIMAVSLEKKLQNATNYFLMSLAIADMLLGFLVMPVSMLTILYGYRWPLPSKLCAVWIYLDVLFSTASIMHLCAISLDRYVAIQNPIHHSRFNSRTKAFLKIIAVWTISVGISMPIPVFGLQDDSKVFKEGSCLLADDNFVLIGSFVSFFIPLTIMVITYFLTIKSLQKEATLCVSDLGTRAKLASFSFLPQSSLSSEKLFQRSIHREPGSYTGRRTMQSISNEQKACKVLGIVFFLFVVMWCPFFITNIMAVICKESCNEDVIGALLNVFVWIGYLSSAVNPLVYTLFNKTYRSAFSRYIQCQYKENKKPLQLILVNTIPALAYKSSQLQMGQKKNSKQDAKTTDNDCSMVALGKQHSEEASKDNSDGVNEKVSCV
Procedure: Test compounds were dissolved in dimethyl sulfoxide (DMSO) at a concentration of 10 mM. Serial dilutions were prepared in a 96-well microplate in assay buffer and eight concentrations were tested. A cellular aequorin-based functional assay was performed with recombinant CHO-K1 cells expressing mitochondrially targeted aequorin, human GPCR and the promiscuous G protein α16 for 5-HT2A. […] After thawing, cells were transferred to assay buffer (DMEM/HAM’s F12 with 0.1% protease-free BSA) and centrifuged. The cell pellet was resuspended in assay buffer and coelenterazine h was added at final concentrations of 5 μM. […] After 1 h of incubation, 50 μL of the cells suspension was dispensed using automatic injectors built into the plate reader POLARstar Omega, (BMG Labtech, Ortenberg, Germany) onto a white opaque 96-well microplates preloaded with test compounds. Immediate light emission generated following calcium mobilization was recorded for 30 s. In antagonist mode, after 30 min of incubation, the reference agonist was added to the above assay mix and light emission was recorded again. The final concentration of the reference agonist was equal to EC80.

[2] = Pharmacokinetics and tissue distribution in rats; type: in vivo, rat; conditions: for MRT / CL/F / Vz/F: rat serum; for MRT / half-life / Tmax / CL/F / Cmax / AUC(0-t) / AUC(0-inf) / Vz/F / AUC0-t, brain / AUC0-t, liver / AUC0-t, lungs / Cmax, heart / Cmax, kidneys / Cmax, liver / Cmax, lungs / AUC0-t, heart / AUC0-t, kidneys / Cmax, brain / t1/2λz, serum: 0.3 mg/kg i.p.; for Kp: intraperitoneal; for Cmax / AUC(0-t) / AUC(0-inf): mean ± SD; for AUC(0-t): read-out: AUC0-t, serum (converted); for AUC(0-inf): read-out: AUC0-∞, serum (converted)
Procedure: To assess pharmacokinetic profile and tissue penetration of 2 and 3, the male Wistar rats were a single intraperitoneal (i.p.) injected with these compounds dissolved in tween (vehicle volume 1 mL/kg) at a dose of 0.3 mg/kg, determined in behavioral studies. The animals were killed by decapitation under deep anesthesia (i.p. injection of 50 mg/kg ketamine and 7.5 mg/kg xylazine) at 5, 15, 30, 60, 120 and 240 min after compounds administration (four animals per time point) and blood samples (approximately 5–6 mL) were collected into tubes. Moreover, five tissues (i.e., brain, heart, lungs, kidneys and liver) were harvested, rinsed with cold saline, and the wet weights determined. Blood was allowed to clot for 15–20 min at room temperature and then centrifuged (3000 rpm for 10 min). The obtained serum and tissues were stored frozen at −80 °C until analysis.
The concentrations of both test compounds in serum and tissue homogenates were measured by a reverse-phase high-performance liquid chromatography method with ultraviolet detection (HPLC/UV). […] The mobile phase consisted of methanol/10 mM potassium dihydrogen phosphate buffer, pH 4.6/acetonitrile (51/40/9, v/v/v). The isocratic separation was performed at 1.0 mL/min constant flow-rate with column temperature maintained at 38 °C. The detection wavelength was set at 206 nm for 2 and at 215 nm for 3. […] EZChrome Elite v. 3.3.2 software (VWR, Darmstadt, Germany) was used for data acquisition.
Before analysis, tissue samples were thawed, placed in four volumes (w/v) of phosphate-buffered saline (PBS, pH 7.4) and homogenized using a MICCRA D-1 homogenizer (ART Prozess- & Labortechnik GmbH & Co., Heitersheim, Germany). To isolate 2 or 3, 500 µL of rat serum or tissue homogenate containing this compound were mixed with a 20-μL volume of IS solution (50 ng/mL or 200 ng/g in methanol). As an IS for compound 2 quantification, compound 3 was used and vice versa.
The samples were alkalized with 50 μL of 4 M sodium hydroxide solution, vortex-mixed, and extracted with 1 mL of ethyl acetate/hexane (30/70, v/v) mixture on a shaker (VXR Vibrax, IKA, Legnica, Poland) for 20 min. After centrifugation (Eppendorf, Mini Spin Plus, Hamburg, Germany), the organic layers were transferred into new tubes containing 100 μL of methanol and 0.1 M sulfuric acid (10/90, v/v) mixture. Then, the samples were shaken and centrifuged again. Finally, 20–90 μL of each acidic layer was injected into the HPLC system.
Other pharmacokinetic parameters were determined on subjecting the concentration–time data to non-compartmental analysis using Phoenix WinNonlin 8.2 software (Pharsight Corporation, a Certara Company, Princeton, NJ, USA).

[3] = male, Wistar, rat, brain (vs serum), 0.3 mg/kg, AUC0-t tissue / AUC0-t serum, read-out: Kp, brain
[4] = male, Wistar, rat, brain, ip, 0.3 mg/kg, rat, read-out: elimination half-life, brain tissue
[5] = male, Wistar, rat, heart / serum, 0.3 mg/kg, AUC0-t tissue / AUC0-t serum, read-out: Kp, heart
[6] = male, Wistar, rat, heart, ip, 0.3 mg/kg, rat, read-out: Tmax, heart (converted)
[7] = male, Wistar, rat, kidneys (vs serum), 0.3 mg/kg, AUC0-t tissue / AUC0-t serum, read-out: Kp, kidneys
[8] = male, Wistar, rat, kidneys, ip, 0.3 mg/kg, rat, read-out: Tmax, kidneys (converted)
[9] = male, Wistar, rat, liver (vs serum), 0.3 mg/kg, AUC0-t tissue / AUC0-t serum, read-out: Kp, liver
[10] = male, Wistar, rat, liver, ip, 0.3 mg/kg, rat, read-out: Tmax, liver (converted)
[11] = male, Wistar, rat, lungs / serum, 0.3 mg/kg, AUC0-t tissue / AUC0-t serum, read-out: Kp, lungs
[12] = male, Wistar, rat, lungs, ip, 0.3 mg/kg, rat, read-out: Tmax, lungs (converted)
[13] = male, Wistar, rat, serum, ip, 0.3 mg/kg, read-out: CL/F (converted)
[14] = male, Wistar, rat, serum, ip, 0.3 mg/kg, rat, read-out: Tmax, serum (converted)
[15] = male, Wistar, rat, serum, ip, 0.3 mg/kg, rat, read-out: t1/2λz, serum

Structure (SMILES): CCC(Oc1cccc(Cl)c1Cl)c1nc(N)nc(N2CCN(C)CC2)n1 (racemic) [Compound 2, (RS)-4-[1-(2,3-dichlorophenoxy)propyl]-6-(4-methylpiperazin-1-yl)-1,3,5-triazin-2-amine]
- increase of LDH leakage [1]: 86%
- Emax (5-HT2A receptor; Table S2, read-out: 5-HT2A Antagonist mode Emax): 1%
- Emax (5-HT2A receptor; read-out: 5-HT2AR Agonist Mode Emax): 21 ± 0.6%
- Kp, brain ([2]; AUC0-t tissue / AUC0-t serum): 2.69
- Kp, kidneys ([2]; AUC0-t tissue / AUC0-t serum): 16.52
- MRT ([2]; male, Wistar, ip): 90.1 min
- Kp [2, 3]: 2.03
- half-life [2, 4]: 149 min
- Kp [2, 5]: 2.3
- Tmax [2, 6]: 5 min
- Kp [2, 7]: 16.5
- Tmax [2, 8]: 15 min
- Kp [2, 9]: 14.4
- Tmax [2, 10]: 15 min
- Kp [2, 11]: 8.54
- Tmax [2, 12]: 5 min
- CL/F [2, 13]: 515 mL/min/kg
- Tmax [2, 14]: 15 min
- half-life [2, 15]: 116 min
- Cmax ([2]; male, Wistar, serum, ip, rat): 5.2 ± 2.24 ng/mL
- AUC(0-t) ([2]; male, Wistar, serum, ip, rat): 7.56 ng·h/mL
- AUC(0-inf) ([2]; male, Wistar, serum, ip, rat): 8.85 ng·h/mL
- CL/F ([2]; 0.3 mg/kg): 514.5 ± 165 mL/min/kg
- Vz/F ([2]; 0.3 mg/kg): 81 L/kg and 80.99 ^a ± 18.22 L/kg
- AUC0-t, brain ([2]; rat): 1219.94 ± 368.79 ng·min/mL or ng·min/g
- AUC0-t, liver ([2]; rat): 6523.60 ± 4997.28 ng·min/mL or ng·min/g
- AUC0-t, lungs ([2]; rat): 3870.66 ± 680.07 ng·min/mL or ng·min/g
- Cmax, heart ([2]; rat): 8.90 ± 8.15 ng/mL or ng/g
- Cmax, kidneys ([2]; rat): 65.73 ± 34.94 ng/mL or ng/g
- Cmax, liver ([2]; rat): 115.22 ± 93.46 ng/mL or ng/g
- Cmax, lungs ([2]; rat): 54.20 ± 21.61 ng/mL or ng/g
- AUC0-t, heart ([2]; rat, 0.3 mg/kg): 1040.7 ng·min/mL or ng·min/g and 1040.74 ± 448.65 ng·min/mL or ng·min/g
- AUC0-t, kidneys ([2]; rat, 0.3 mg/kg): 7488.1 ng·min/mL or ng·min/g and 7488.06 ± 4372.92 ng·min/mL or ng·min/g
- Cmax, brain ([2]; rat, 0.3 mg/kg): 11.63 ± 3.13 ng/mL or ng/g
- t1/2λz, serum ([2]; rat, 0.3 mg/kg): 116 min and 116.18 ^a ± 17.14 min

Structure (SMILES): CCC(Oc1ccccc1)c1nc(N)nc(N2CCN(C)CC2)n1 (racemic) [Compound 3, (RS)-4-(4-methylpiperazin-1-yl)-6-(1-phenoxypropyl)-1,3,5-triazin-2-amine]
- Kp, brain ([2]; AUC0-t tissue / AUC0-t serum): 2.03
- Kp, liver ([2]; AUC0-t tissue / AUC0-t serum): 10.54
- MRT ([2]; male, Wistar, ip): 79.3 min
- Kp [2, 3]: 2.63
- Tmax ([2]; male, Wistar, rat, brain, ip, 0.3 mg/kg, rat, read-out: Tmax, brain (converted)): 5 min
- half-life [2, 4]: 112 min
- Kp [2, 5]: 2.49
- Tmax [2, 6]: 5 min
- Kp [2, 7]: 6.03
- Tmax [2, 8]: 15 min
- Kp [2, 9]: 10.5
- Tmax [2, 10]: 5 min
- Kp [2, 11]: 6.41
- Tmax [2, 12]: 5 min
- CL/F [2, 13]: 587 mL/min/kg
- Tmax [2, 14]: 5 min
- half-life [2, 15]: 76.7 min
- Cmax ([2]; male, Wistar, serum, ip, rat): 6.32 ± 5.03 ng/mL
- AUC(0-t) ([2]; male, Wistar, serum, ip, rat): 7.07 ng·h/mL
- AUC(0-inf) ([2]; male, Wistar, serum, ip, rat): 8.53 ng·h/mL
- CL/F ([2]; 0.3 mg/kg): 586 ± 298.7 mL/min/kg
- Vz/F ([2]; 0.3 mg/kg): 65 L/kg and 64.81 ± 21.78 L/kg
- AUC0-t, heart ([2]; rat): 1057.37 ± 285.41 ng·min/mL or ng·min/g
- AUC0-t, kidneys ([2]; rat): 2557.08 ± 1084.42 ng·min/mL or ng·min/g
- AUC0-t, lungs ([2]; rat): 2715.09 ± 1000.42 ng·min/mL or ng·min/g
- Cmax, heart ([2]; rat): 21.83 ± 17.16 ng/mL or ng/g
- Cmax, kidneys ([2]; rat): 41.25 ± 8.41 ng/mL or ng/g
- Cmax, liver ([2]; rat): 129.62 ± 106.23 ng/mL or ng/g
- Cmax, lungs ([2]; rat): 73.65 ± 63.94 ng/mL or ng/g
- AUC0-t, brain ([2]; rat, 0.3 mg/kg): 859.1 ng·min/mL or ng·min/g and 859.08 ± 312.87 ng·min/mL or ng·min/g
- AUC0-t, liver ([2]; rat, 0.3 mg/kg): 4467.2 ng·min/mL or ng·min/g and 4467.18 ± 2249.99 ng·min/mL or ng·min/g
- Cmax, brain ([2]; rat, 0.3 mg/kg): 11.35 ± 6.93 ng/mL or ng/g
- t1/2λz, serum ([2]; rat, 0.3 mg/kg): 77 min and 76.65 ± 18.07 min
